Reference: PMC6273079, “Purification of Flavonoids from Chinese Bayberry (Morella rubra Sieb. et Zucc.) Fruit Extracts and α-Glucosidase Inhibitory Activities of Different Fractionations” (Molecules, 2016)

How the values were obtained:
[1] = DPPH radical scavenging activity; settings: samples from BQ pulp; 1 h reaction, 515 nm; mean ± SD, n = 3
Experimental: DPPH radical scavenging activity was measured according to Brand-Williams, Cuvelier, and Berset with modifications. The reaction for scavenging DPPH radical was carried out by adding 2 μL sample to 198 μL 25 μg/mL DPPH solution at room temperature. Absorbance at 515 nm before (A0) and after (A1) the reaction (1 h) was recorded using a micro-plate reader (BioTech, Synergy H1, Winooski, VT, USA). The radical scavenging activity was calculated as: Scavenging rate (%) = (A0 − A1)/A0 × 100 (1)

[2] = ABTS radical scavenging activity; settings: samples from BQ pulp; 6 min, 734 nm; mean ± SD, n = 3
Experimental: ABTS assay was carried out using a spectrophotometer as reported. The ABTS radical cation was generated by reacting 7 mmol/L ABTS with 2.45 mmol/L potassium persulfate, and the mixture was allowed to stand in the dark at room temperature for 16 h before use. Before analysis, the ABTS solution was diluted with ethanol to an absorbance of 0.70 ± 0.05 at a wavelength of 734 nm. The absorbance at 734 nm was recorded for 6 min after mixing of 0.1 mL of the tested samples dissolved in ethanol with 3.9 mL of ABTS solution. The radical scavenging activity was calculated as the Equation (1) above.

Compound	IC50 of DPPH scavenging activity [1]	IC50 of ABTS radical scavenging activity [2]
OC[C@H]1O[C@@H](Oc2cc3c(O)cc(O)cc3[o+]c2-c2ccc(O)c(O)c2)[C@H](O)[C@@H](O)[C@@H]1O [C3G, cyanidin-3-O-glucoside]	3.22 µg/mL	4.19 ± 0.16 µg/mL
C[C@@H]1O[C@@H](Oc2c(-c3cc(O)c(O)c(O)c3)oc3cc(O)cc(O)c3c2=O)[C@H](O)[C@H](O)[C@H]1O [M3R, myricetin-3-O-rhamnoside]	2.81 µg/mL	3.24 ± 0.02 µg/mL
O=c1c(O[C@@H]2O[C@H](CO)[C@H](O)[C@H](O)[C@H]2O)c(-c2ccc(O)c(O)c2)oc2cc(O)cc(O)c12 [Q3Gal, quercetin-3-O-galactoside]	2.43 µg/mL	2.09 ± 0.01 µg/mL
quercetin-3-O-rhamnoside [Q3R]	2.55 µg/mL	2.28 ± 0.05 µg/mL
